Where two headings read alike, the source gives them in different places.
Key:
H3K36me2 mark = assay: IF assay of histone mark in HeLa cells treated with cytotoxic agents
HeLa cells [1] = assay: Hoechst 33342/Yo-Pro 3/Annexin triple staining, live cell death pattern analysis; type: cell-based
Procedure: Cells exposed to the inhibitors for 24 h were stained with Hoechst 33342 (1 µM), Yo-Pro 3 (1 µM) and Annexin V (0.3 μL per well) for 1 h. Cellular fluorescence was measured using the IN Cell 6000 (GE) using the following set-up parameters: bright-field transmitted light at 50% for 15 ms; Hoechst 33342 was excited by 35-ms exposure(Ex 360–400 nm/Em 410–480 nm), Yo-Pro 3 by 35-ms exposure(Ex 560–580 nm/Em 650–760 nm) and Annexin V (Alexa 488) by 45-ms exposure(Ex 460–490 nm/Em 500–550 nm). All the generated data were analysed using the IN Cell Analyser software, and three categories were distinguished: healthy cells, apoptosis and necrosis—calculated as percentage of each class for every concentration used.

HeLa cells [2] = assay: Cell number in the high-content screen (DAPI staining) as measure of toxicity; conditions: concentrations used in the IF assays
Excerpt: (§2) Immunofluorescence images of 20 fields (if not indicated otherwise) were captured through a 20× objective on a PerkinElmer Operetta or the GE IN Cell 6000 using the appropriate filters and light sources for exciting DAPI, Alexafluor 488, and Alexafluor 568 or Alexafluor 647. […] From the DAPI channel, a binary mask was created to exclude individual nuclei smaller than 100 µm^2 and those overlapping the edge of the field.

H3K27me3 mark = assay: IF assay of histone mark in HeLa cells treated with cytotoxic agents
H3K9me2 mark = assay: as above
H3K4me3 mark = assay: as above
KDM5B [3] = target: T1, KDM5B (Homo sapiens, UniProt Q9UGL1); set-up: method as in PMID 26741168; conditions: AlphaScreen; in vitro biochemical profiling previously reported; cited from earlier work
T1 sequence (Q9UGL1 whole entry): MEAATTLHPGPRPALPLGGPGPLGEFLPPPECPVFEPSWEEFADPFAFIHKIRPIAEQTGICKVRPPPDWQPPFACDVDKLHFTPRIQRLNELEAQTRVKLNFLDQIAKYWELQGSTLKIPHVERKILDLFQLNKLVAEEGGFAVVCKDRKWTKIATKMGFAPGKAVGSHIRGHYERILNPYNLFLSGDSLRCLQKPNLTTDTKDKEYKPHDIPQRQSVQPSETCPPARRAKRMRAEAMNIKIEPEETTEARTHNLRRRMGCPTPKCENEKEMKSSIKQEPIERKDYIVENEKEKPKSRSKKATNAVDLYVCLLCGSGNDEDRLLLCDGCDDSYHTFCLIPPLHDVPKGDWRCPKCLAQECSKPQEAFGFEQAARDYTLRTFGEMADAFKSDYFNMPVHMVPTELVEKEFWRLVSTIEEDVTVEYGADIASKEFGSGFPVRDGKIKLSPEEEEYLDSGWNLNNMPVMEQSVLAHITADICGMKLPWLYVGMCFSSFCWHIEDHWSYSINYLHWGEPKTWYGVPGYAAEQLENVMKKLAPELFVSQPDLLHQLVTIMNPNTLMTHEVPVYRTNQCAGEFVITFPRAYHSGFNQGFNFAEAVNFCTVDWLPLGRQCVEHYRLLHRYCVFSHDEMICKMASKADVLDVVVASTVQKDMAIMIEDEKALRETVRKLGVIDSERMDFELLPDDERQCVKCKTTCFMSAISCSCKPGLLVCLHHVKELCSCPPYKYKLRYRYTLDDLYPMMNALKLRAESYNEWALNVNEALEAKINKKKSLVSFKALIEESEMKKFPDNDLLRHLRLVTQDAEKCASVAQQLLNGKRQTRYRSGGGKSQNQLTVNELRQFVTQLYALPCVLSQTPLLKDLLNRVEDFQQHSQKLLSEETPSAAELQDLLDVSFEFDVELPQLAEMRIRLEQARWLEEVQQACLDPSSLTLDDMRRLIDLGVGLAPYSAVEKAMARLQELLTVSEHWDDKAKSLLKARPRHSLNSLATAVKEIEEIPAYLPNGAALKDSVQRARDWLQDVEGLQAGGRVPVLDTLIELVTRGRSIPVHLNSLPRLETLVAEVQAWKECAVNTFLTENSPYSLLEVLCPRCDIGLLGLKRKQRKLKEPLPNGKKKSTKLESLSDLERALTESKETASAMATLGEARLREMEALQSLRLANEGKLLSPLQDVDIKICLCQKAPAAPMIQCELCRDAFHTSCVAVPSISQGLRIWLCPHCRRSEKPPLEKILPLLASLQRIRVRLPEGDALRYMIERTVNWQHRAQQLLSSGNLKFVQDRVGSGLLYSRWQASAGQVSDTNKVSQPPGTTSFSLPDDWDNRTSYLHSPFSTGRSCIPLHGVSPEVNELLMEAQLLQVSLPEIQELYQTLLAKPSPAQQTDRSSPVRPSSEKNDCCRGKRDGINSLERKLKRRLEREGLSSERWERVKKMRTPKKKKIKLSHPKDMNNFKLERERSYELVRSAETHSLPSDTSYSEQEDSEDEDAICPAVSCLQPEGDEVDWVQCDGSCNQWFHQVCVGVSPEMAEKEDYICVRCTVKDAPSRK

KDM5B [4] = target: T1, KDM5B; assay: High-content immunofluorescence (IF) assay, overexpressed full-length FLAG-tagged KDM in HeLa cells; type: cell-based; set-up: transiently transfecting the full-length FLAG-tagged demethylase (WT) into cells; expressed in transfected cells; host or cells: HeLa; conditions: for EC50: HeLa cells overexpressing WT KDM5B, H3K4me3 mark, 24 h, read-out: KDM5B, in cells, EC50 by IF assay (head: IC50); for Effect on H3K4me3 mark in KDM5B IF assay, in words: HeLa cells transfected with KDM5B
Procedure: HeLa cells (ATCC) were cultured at 37 °C and 5% CO2 in Minimal Essential Media—Eagle (Sigma-Aldrich, UK) supplemented with 10% heat-inactivated foetal calf serum (FCS) (Gibco, UK), and 1% L-glutaMAX (Gibco, UK) in T75 flasks (Sarstedt, UK) and passaged regularly with TrypLE (Life Technologies, UK) before cells reached confluence. On day 0, 7000 cells per well were plated on a 96-well clear bottom CellCarrier plate (PerkinElmer, UK). The next day the cells were transfected with Lipofectamine 3000 (ThermoFisher Scientific, UK) following the manufacturer’s instructions. Briefly, 0.1 µg of plasmid DNA (encoding for the respective demethylase) and 0.15 µL of Lipofectamine 3000 were diluted in separate tubes containing 5 µL OptiMEM. 0.15 µL of P3000 was added to the tube with the DNA. The two solutions were then mixed gently and allowed to incubate for 5 min at room temperature. Next, the DNA-lipid complex was added to the cells for 4 h at 37 °C and 5% CO2.
Compound dilutions were made in a 96-well PCR plate (Starlab, UK). The culture medium was supplemented with 0.4% DMSO so that the solvent concentration was maintained throughout. Compounds were serially diluted at a 1:2 or 1:3 dilution ratio. Next, the cell culture plate was removed from the incubator and the medium was gently aspirated and replaced with the fresh medium containing diluted compounds.
Then cells were rinsed once with PBS and blocked for 30 min at room temperature using 3% v/v foetal calf serum diluted in PBS.

HeLa cells [5] = system: HeLa cells
Excerpt: as §2

KDM5B [6] = target: T1, KDM5B; assay: AlphaScreen in vitro demethylase assay; type: biochemical
Procedure: (§1) IC50 values were determined as previously described. The following amendments were made to the protocol for carrying out 2-OG competition assays.

KDM6B = KDM6B (Homo sapiens, UniProt O15054); assay: AlphaScreen in vitro demethylase assay; type: biochemical; conditions: in vitro KDM assay, Table S3; * likely false positive due to colour quenching; read-out: KDM6B IC50
Sequence of KDM6B (O15054 whole entry): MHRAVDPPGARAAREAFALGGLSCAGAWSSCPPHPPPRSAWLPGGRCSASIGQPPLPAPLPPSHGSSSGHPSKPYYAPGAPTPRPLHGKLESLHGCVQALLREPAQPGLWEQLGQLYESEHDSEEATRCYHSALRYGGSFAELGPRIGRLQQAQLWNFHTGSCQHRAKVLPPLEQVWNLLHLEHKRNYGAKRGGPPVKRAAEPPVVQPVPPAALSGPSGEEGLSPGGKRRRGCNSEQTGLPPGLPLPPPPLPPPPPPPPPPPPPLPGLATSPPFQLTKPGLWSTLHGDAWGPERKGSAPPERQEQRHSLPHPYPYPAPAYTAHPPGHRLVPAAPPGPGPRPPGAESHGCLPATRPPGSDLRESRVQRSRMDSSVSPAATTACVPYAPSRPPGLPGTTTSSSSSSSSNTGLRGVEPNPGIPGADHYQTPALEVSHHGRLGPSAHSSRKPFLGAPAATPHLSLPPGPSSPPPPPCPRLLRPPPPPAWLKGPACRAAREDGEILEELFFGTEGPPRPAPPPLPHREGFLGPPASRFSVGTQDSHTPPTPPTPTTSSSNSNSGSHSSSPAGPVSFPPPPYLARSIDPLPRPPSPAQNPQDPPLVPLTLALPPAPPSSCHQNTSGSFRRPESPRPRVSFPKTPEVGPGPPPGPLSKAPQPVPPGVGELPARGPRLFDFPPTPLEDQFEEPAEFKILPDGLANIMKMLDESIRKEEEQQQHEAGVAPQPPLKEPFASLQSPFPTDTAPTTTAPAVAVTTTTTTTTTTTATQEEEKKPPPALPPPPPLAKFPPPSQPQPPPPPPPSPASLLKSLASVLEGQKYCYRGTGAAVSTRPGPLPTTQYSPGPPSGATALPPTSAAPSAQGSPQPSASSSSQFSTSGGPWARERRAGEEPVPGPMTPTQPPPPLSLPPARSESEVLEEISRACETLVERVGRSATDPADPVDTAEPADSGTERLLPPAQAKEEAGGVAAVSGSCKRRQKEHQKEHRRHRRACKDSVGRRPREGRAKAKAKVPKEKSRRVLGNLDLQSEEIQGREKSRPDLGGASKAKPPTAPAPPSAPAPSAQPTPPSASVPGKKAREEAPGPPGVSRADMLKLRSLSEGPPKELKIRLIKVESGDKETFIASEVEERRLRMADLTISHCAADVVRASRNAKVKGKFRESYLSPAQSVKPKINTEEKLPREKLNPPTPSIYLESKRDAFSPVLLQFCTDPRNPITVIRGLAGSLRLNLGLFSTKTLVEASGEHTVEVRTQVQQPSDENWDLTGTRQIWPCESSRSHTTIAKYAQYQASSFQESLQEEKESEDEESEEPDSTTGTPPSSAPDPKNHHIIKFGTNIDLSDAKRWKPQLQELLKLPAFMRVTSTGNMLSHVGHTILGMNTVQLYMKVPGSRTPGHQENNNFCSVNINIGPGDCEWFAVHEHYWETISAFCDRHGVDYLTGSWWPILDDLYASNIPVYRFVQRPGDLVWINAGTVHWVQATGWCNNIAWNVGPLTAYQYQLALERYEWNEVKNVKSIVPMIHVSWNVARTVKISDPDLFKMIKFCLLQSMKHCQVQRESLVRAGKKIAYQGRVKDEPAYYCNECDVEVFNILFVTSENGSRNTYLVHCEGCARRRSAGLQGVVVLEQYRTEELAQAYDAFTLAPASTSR
Procedure: as §1

KDM4C = target: T2, KDM4C (Homo sapiens, UniProt Q9H3R0); assay: AlphaScreen in vitro demethylase assay; type: biochemical; conditions: in vitro KDM assay, Table S3; * likely false positive due to colour quenching; read-out: KDM4C IC50
T2 sequence (Q9H3R0 1-1056): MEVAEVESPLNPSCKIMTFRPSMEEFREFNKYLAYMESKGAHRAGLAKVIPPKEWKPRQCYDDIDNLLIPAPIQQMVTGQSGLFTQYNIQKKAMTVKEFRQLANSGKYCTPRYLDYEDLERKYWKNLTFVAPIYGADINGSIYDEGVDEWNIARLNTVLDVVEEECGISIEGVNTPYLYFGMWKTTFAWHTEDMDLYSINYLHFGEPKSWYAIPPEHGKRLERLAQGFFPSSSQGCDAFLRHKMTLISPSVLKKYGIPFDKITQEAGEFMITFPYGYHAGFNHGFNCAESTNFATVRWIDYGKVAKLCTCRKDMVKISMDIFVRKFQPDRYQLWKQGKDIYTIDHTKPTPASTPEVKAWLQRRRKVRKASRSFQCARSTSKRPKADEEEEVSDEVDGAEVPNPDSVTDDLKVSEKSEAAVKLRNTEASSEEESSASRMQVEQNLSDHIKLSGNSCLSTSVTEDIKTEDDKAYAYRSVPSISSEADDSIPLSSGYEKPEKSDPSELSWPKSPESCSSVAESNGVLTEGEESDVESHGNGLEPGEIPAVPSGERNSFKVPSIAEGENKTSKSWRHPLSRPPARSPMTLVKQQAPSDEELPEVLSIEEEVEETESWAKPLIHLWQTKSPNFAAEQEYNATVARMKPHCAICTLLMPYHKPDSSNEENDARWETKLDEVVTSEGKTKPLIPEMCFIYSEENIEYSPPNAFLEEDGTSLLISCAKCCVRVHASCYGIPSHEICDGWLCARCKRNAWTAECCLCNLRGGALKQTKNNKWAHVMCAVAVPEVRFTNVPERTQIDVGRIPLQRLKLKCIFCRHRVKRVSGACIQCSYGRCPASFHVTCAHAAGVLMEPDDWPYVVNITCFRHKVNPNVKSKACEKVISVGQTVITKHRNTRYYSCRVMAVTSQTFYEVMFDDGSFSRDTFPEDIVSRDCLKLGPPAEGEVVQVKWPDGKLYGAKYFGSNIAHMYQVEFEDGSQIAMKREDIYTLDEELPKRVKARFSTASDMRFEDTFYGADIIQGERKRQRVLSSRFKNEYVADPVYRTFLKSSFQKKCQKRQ
Procedure: as §1

KDM3A = target: T3, KDM3A (Homo sapiens, UniProt Q9Y4C1); assay: AlphaScreen in vitro demethylase assay; type: biochemical; conditions: IC50 ± SD (number of replicates)
T3 sequence (Q9Y4C1 1-1321): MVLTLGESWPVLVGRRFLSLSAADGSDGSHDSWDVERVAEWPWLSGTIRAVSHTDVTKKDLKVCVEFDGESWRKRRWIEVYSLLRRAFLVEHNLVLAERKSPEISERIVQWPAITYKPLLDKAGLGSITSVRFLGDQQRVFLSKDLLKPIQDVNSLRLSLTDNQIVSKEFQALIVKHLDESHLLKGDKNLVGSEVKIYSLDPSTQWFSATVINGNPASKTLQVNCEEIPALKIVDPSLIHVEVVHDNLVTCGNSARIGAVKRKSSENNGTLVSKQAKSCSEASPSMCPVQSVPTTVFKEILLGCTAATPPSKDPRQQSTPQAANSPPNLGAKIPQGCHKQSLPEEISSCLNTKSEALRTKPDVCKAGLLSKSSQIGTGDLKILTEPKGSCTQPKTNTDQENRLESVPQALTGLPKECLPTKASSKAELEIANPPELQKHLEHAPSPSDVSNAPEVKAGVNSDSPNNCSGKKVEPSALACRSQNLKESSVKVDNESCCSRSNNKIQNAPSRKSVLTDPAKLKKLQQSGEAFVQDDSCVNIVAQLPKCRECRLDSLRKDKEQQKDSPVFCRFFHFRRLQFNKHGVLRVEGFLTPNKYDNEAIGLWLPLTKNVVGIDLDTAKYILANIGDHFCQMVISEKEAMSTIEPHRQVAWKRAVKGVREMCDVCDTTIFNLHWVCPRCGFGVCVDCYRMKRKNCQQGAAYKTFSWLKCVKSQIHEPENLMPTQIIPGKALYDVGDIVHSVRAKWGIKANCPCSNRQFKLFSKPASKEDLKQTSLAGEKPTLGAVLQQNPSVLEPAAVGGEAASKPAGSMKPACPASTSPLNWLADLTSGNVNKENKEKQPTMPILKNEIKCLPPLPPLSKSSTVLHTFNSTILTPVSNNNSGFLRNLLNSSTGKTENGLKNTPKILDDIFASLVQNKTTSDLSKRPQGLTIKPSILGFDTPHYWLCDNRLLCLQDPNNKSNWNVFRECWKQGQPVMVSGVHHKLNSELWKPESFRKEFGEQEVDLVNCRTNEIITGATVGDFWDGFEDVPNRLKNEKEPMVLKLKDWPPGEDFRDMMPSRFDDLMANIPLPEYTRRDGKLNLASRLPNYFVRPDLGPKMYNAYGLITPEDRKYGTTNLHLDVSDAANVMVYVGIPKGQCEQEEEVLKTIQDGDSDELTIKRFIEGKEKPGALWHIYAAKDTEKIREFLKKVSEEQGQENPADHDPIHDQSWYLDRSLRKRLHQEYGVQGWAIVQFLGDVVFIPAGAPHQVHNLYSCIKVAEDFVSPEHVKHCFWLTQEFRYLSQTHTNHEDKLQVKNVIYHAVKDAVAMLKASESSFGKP
Procedure: as §1

KDM5C = KDM5C (Homo sapiens, UniProt P41229); assay: AlphaScreen in vitro demethylase assay; type: biochemical; conditions: IC50 ± SD (number of replicates)
Sequence of KDM5C (P41229 whole entry): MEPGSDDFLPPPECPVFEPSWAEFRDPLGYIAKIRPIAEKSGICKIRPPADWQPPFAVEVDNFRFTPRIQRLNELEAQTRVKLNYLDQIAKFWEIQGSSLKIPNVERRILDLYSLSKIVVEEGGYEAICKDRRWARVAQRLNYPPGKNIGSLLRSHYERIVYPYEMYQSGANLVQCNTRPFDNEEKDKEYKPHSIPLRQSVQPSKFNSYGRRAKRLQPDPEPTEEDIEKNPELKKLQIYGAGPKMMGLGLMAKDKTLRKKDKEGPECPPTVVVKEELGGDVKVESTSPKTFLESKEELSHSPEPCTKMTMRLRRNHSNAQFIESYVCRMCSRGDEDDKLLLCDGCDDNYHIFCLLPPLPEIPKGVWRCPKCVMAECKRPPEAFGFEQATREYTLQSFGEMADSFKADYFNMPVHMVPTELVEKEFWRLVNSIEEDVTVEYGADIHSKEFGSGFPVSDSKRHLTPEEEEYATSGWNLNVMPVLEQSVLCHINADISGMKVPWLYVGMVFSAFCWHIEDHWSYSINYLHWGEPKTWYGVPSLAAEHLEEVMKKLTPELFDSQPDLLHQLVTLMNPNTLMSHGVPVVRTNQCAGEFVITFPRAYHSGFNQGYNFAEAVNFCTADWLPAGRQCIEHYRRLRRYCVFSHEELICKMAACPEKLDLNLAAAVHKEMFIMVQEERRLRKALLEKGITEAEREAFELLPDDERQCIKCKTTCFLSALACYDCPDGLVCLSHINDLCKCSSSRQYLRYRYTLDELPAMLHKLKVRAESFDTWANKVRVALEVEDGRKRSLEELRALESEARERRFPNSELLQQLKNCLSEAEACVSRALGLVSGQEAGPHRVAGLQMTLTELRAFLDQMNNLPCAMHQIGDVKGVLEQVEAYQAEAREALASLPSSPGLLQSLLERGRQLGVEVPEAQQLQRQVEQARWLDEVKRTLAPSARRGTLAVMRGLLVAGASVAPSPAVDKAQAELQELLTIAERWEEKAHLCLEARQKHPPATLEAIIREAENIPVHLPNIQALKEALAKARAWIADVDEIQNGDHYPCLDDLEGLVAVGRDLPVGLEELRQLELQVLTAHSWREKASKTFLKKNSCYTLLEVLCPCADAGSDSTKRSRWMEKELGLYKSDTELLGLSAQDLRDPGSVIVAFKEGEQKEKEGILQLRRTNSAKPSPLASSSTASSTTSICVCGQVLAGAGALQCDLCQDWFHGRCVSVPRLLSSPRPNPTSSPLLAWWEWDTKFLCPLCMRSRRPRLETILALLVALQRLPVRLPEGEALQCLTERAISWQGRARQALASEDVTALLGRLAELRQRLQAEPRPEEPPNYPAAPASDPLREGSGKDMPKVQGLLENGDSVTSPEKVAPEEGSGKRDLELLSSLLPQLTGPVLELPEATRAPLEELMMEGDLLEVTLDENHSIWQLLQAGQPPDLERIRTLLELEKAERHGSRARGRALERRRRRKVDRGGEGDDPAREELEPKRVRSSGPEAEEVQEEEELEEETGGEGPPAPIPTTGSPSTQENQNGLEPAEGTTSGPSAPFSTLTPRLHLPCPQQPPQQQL
Procedure: as §1

[7] = HeLa cells, 24 h, dose-dependent
[8] = in vitro KDM assay, Table S3, * likely false positive due to colour quenching, read-out: KDM5B IC50

COc1cccc2c1C(=O)c1c(O)c3c(c(O)c1C2=O)C[C@@](O)(C(=O)CO)C[C@@H]3O[C@H]1C[C@H](N)[C@H](O)[C@H](C)O1 [Doxorubicin, doxorubicin]
Effect on H3K36me2 levels, in words (H3K36me2 mark): only marginally affected
Cell death in triple staining (healthy, apoptotic, necrotic), in words (HeLa cells [1]): predominant apoptotic staining
Toxicity as measured by cell count (number of cells, DAPI staining) (HeLa cells [2]): induced cell death
Effect on H3K27me3 mark, in words (H3K27me3 mark): profound effect
Effect on H3K9me2 levels, in words (H3K9me2 mark): some increase
Effect on H3K4me3 levels, in words (H3K4me3 mark): no effect on this mark

O=C(O)c1ccc(O)c2ncccc12 [IOX1]
Cell death in triple staining (healthy, apoptotic, necrotic), in words (HeLa cells [1]; [7]): little to no cell toxicity
IC50 (KDM5B [3]): 20.6 ± 9 µM
Toxicity as measured by cell count (number of cells, DAPI staining) (HeLa cells [2]): only observed cell toxicity at high concentrations
EC50 (KDM5B [4]): 62 µM
Effect on H3K4me3 mark in KDM5B IF assay, in words (KDM5B [4]): dose-dependent increase of H3K4me3

CCOC(=O)CCNc1cc(N2CCc3ccccc3CC2)nc(-c2ccccn2)n1 [GSK-J4]
Toxicity as measured by cell count (number of cells, DAPI staining) (HeLa cells [5]): only minor toxicity at the highest concentrations used
Effect on H3K4me3 mark in KDM5B IF assay, in words (KDM5B [4]): increase of the H3K4me3 mark

CN[C@@H]1C[C@H]2O[C@@](C)([C@@H]1OC)n1c3ccccc3c3c4c(c5c6ccccc6n2c5c31)C(=O)NC4 [Staurosporine, staurosporine]
Cell death in triple staining (healthy, apoptotic, necrotic), in words (HeLa cells [1]; [7]): predominant apoptotic staining
IC50 (KDM5B [6]; [8]): > 100 µM
IC50 (KDM6B): > 100 µM
IC50 (KDM4C): > 100 µM

CC(=O)O[C@H]1C(=O)[C@@]2(C)[C@H]([C@H](OC(=O)c3ccccc3)[C@]3(O)C[C@H](OC(=O)[C@H](O)[C@@H](NC(=O)c4ccccc4)c4ccccc4)C(C)=C1C3(C)C)[C@]1(OC(C)=O)CO[C@@H]1C[C@@H]2O [Paclitaxel, paclitaxel]
Effect on H3K36me2 levels, in words (H3K36me2 mark): only marginally affected
Cell death in triple staining (healthy, apoptotic, necrotic), in words (HeLa cells [1]): predominant apoptotic staining
IC50 (KDM5B [6]; [8]): > 100 µM
IC50 (KDM6B): > 100 µM
IC50 (KDM4C): > 100 µM
Toxicity as measured by cell count (number of cells, DAPI staining) (HeLa cells [2]): induced cell death
Effect on H3K27me3 mark, in words (H3K27me3 mark): profound effect
Effect on H3K9me2 levels, in words (H3K9me2 mark): not affected
Effect on H3K4me3 levels, in words (H3K4me3 mark): dose-dependent increase of H3K4me3

Clc1ccc(N/N=C(/c2ccccc2)c2ccccn2)nc1 [JIB-04 Z]
IC50 (KDM5B [6]; AlphaScreen, IC50 ± SD (number of replicates), read-out: KDM5B IC50, in vitro): 7.01 µM
IC50 (KDM3A): > 10 µM
IC50 (KDM5C): > 10 µM
EC50 (KDM5B [4]): > 100 µM

CCOC(=O)CCNc1cc(N2CCc3ccccc3CC2)nc(-c2cccnc2)n1 [GSK-J5]
necrotic cells (HeLa cells [1]; HeLa cells, 50 µM): about 60%
Toxicity as measured by cell count (number of cells, DAPI staining) (HeLa cells [2]): only minor toxicity at the highest concentrations used
